The results in this text go back to patent publication US20230002373A1, “COMPOUNDS AND COMPOSITIONS FOR TREATING CONDITIONS ASSOCIATED WITH STING ACTIVITY” (IFM Due, Inc., priority 2019, published 2023).

The target in the first assay is T1, hSTING (Homo sapiens, UniProt Q86WV6, G230A/H232R/R293Q/R71H).
T1 construct: host or cells: THP1-Dual KO-IFNAR2 cells
T1 sequence (Q86WV6 whole entry R71H/G230A/H232R/R293Q): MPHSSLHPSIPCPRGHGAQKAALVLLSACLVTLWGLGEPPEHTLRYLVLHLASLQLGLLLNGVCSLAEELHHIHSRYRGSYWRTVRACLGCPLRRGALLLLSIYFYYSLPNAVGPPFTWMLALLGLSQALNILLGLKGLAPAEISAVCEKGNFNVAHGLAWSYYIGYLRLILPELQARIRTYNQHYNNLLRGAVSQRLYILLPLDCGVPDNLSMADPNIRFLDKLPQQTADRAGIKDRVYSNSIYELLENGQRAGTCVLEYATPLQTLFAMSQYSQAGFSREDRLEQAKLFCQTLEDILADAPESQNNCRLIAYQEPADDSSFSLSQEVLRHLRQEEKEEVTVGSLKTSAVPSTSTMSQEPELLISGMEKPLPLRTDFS
Put plainly: STING reporter assay (luciferase) in THP1-Dual KO-IFNAR2 cells stimulated with 2′3′cGAMP. The assay is classed as cell-based. The settings on record: 15 μM 2′3′cGAMP, 24 h, class symbols. The method, then: STING pathway activation by the compounds described herein was measured using THP1-Dual™ cells (KO-IFNAR2).
THP1-Dual™ KO-IFNAR2 Cells (obtained from invivogen) were maintained in RPMI, 10% FCS, 5 ml P/S, 2 mM L-glut, 10 mM Hepes, and 1 mM sodium pyruvate. Compounds were spotted in empty 384 well tissue culture plates (Greiner 781182) by Echo for a final concentration of 0.0017-100 μM. Cells were plated into the TC plates […], 2×10E6 cells/mL. For activation with STING ligand, 2′3′cGAMP (MW 718.38, obtained from Invivogen), was prepared in Optimem media.
The following solutions were prepared for each 1×384 plate: • Solution A: 2 mL Optimem with one of the following stimuli: • 60 μL of 10 mM 2′3′cGAMP->150 μM stock • Solution B: 2 mL Optimem with 60 μL Lipofectamine 2000->Incubate 5 min at RT
2 mL of solution A and 2 ml Solution B was mixed and incubated for 20 min at room temperature (RT). 20 uL of transfection solution (A+B) was added on top of the plated cells, with a final 2′3′cGAMP concentration of 15 μM. The plates were then centrifuged immediately at 340 g for 1 minute, after which they were incubated at 37° C., 5% CO2, >98% humidity for 24 h. Luciferase reporter activity was then measured. EC50 values were calculated by using standard methods known in the art.
Luciferase reporter assay: 10 μL of supernatant from the assay was transferred to white 384-plate with flat bottom and squared wells. One pouch of QUANTI-Luc™ Plus was dissolved in 25 mL of water. 100 μL of QLC Stabilizer per 25 mL of QUANTI-Luc™ Plus solution was added. 50 μL of QUANTI-Luc™ Plus/QLC solution per well was then added. Luminescence was measured on a Platereader (e.g., Spectramax I3X (Molecular Devices GF3637001)).
Luciferase reporter activity was then measured. EC50 values were calculated by using standard methods known in the art.
On the technique in general: A reporter such as luciferase makes a cellular process visible.
The compound `O=C(Nc1c[nH]c2ncc(F)cc12)C(=O)N[C@H]1CCCC2(CCCCC2)C1` (single isomer, unassigned) [Compound 196, N-[5-fluoro-1H-pyrrolo[2,3-b]pyridin-3-yl]-N′-[(2S or 2R)-spiro[5.5]undecan-2-yl]ethanediamide] showed an EC50 of 1 to 5 µM. `O=C(Nc1c[nH]c2ncc(F)cc12)C(=O)N[C@@H]1CCCC2(CCCCC2)C1` (single isomer, unassigned) [Compound 197, N-[5-fluoro-1H-pyrrolo[2,3-b]pyridin-3-yl]-N′-[(2R or 2S)-spiro[5.5]undecan-2-yl]ethanediamide] yielded an EC50 of 5 to 100 µM. On the same count and under the same terms, in the case of `O=C(Nc1c[nH]c2ncc(F)cc12)C(=O)N[C@H]1CCC2(CCCC2)C1` (single isomer, unassigned) [Compound 199] it was 5 to 100 µM; in that of `O=C(Nc1c[nH]c2ncc(F)cc12)C(=O)N[C@@H]1CCC2(CCCC2)C1` (single isomer, unassigned) [Compound 200], 5 to 100 µM; in that of `O=C(Nc1c[nH]c2ncc(F)cc12)C(=O)N[C@H]1CCC2(CCCCC2)C1` (single isomer, unassigned) [Compound 201], 1 to 5 µM. Compound `O=C(Nc1c[nH]c2ncc(F)cc12)C(=O)N[C@@H]1CCC2(CCCCC2)C1` (single isomer, unassigned) [Compound 202] yielded an EC50 of 5 to 100 µM.

For the compound `Cc1cc(NC(=O)C(=O)Nc2c[nH]c3ncc(F)cc23)cc(C(F)(F)F)c1` [Compound 101, N^1-(5-fluoro-1H-pyrrolo[2,3-b]pyridin-3-yl)-N^2-(3-methyl-5-(trifluoromethyl)phenyl)oxalamide], the EC50 lay within 0.2 to 1 µM.

As for `O=C(Nc1ccc(C2CCCCC2)nc1)C(=O)Nc1c[nH]c2ncc(F)cc12` [Compound 102, N^1-(6-cyclohexyl-pyridin-3-yl)-N^2-(5-fluoro-1H-pyrrolo[2,3-b]pyridin-3-yl)oxalamide], the EC50 lay in the range of 1 to 5 µM. `O=C(Nc1c[nH]c2ncc(F)cc12)C(=O)NC1CCC2(CCCCC2)CC1` [Compound 103, N^1-(5-fluoro-1H-pyrrolo[2,3-b]pyridin-3-yl)-N^2-(spiro[5.5]undecan-3-yl)oxalamide] displayed an EC50 of 0.2 to 1 µM.

In the case of `O=C(NCC12CC3CC(CC(C3)C1)C2)C(=O)Nc1c[nH]c2ncc(F)cc12` [Compound 105, N^1-(adamantan-1-ylmethyl)-N^2-(5-fluoro-1H-pyrrolo[2,3-b]pyridin-3-yl)oxalamide], the EC50 was in the range of 5 to 100 µM. Consider `Cc1cc(NC(=O)C(=O)Nc2c[nH]c3cccnc23)cc(C(F)(F)F)c1` [Compound 107, N^1-(3-methyl-5-(trifluoromethyl)phenyl)-N^2-(1H-pyrrolo[3,2-b]pyridin-3-yl)oxalamide], for which the EC50 was in the range of 0.2 to 1 µM. Consider `Cc1ccc(CNC(=O)C(=O)Nc2c[nH]c3cccnc23)cc1C(F)(F)F` [Compound 109, N^1-(4-methyl-3-(trifluoromethyl)benzyl)-N^2-(1H-pyrrolo[3,2-b]pyridin-3-yl)oxalamide], for which the EC50 was 0.2 to 1 µM. The same measure, in the same setting: in the case of `O=C(NCc1ccc(-c2ccccc2C(F)(F)F)cc1)C(=O)Nc1c[nH]c2cccnc12` [Compound 110, N^1-(1H-pyrrolo[3,2-b]pyridin-3-yl)-N^2-((2′-(trifluoromethyl)-[1,1′-biphenyl]-4-yl)methyl)oxalamide] it was 1 to 5 µM. As for `O=C(NCC1CC2C=CC1C2)C(=O)Nc1c[nH]c2cccnc12` (stereo not drawn) [Compound 111, N^1-(bicyclo[2.2.1]hept-5-en-2-ylmethyl)-N^2-(1H-pyrrolo[3,2-b]pyridin-3-yl)oxalamide], the EC50 was in the range of 5 to 100 µM. `O=C(Nc1ccc(C(F)(F)F)cn1)C(=O)Nc1c[nH]c2ccncc12` [Compound 113, N^1-(1H-pyrrolo[3,2-c]pyridin-3-yl)-N^2-(5-(trifluoromethyl)pyridin-2-yl)oxalamide] displayed an EC50 of 1 to 5 µM. Still for that read-out and setting: in the case of `O=C(Nc1cccc(C(F)(F)F)c1)C(=O)Nc1c[nH]c2ccncc12` [Compound 114, N^1-(1H-pyrrolo[3,2-c]pyridin-3-yl)-N^2-(3-(trifluoromethyl)phenyl)oxalamide] it was 1 to 5 µM; in that of `Cc1cc(NC(=O)C(=O)Nc2c[nH]c3ccncc23)cc(C(F)(F)F)c1` [Compound 115, N^1-(3-methyl-5-(trifluoromethyl)phenyl)-N^2-(1H-pyrrolo[3,2-c]pyridin-3-yl)oxalamide], 0.2 to 1 µM; in that of `Cc1ccc(CNC(=O)C(=O)Nc2c[nH]c3ccncc23)cc1C(F)(F)F` [Compound 119, N^1-(4-methyl-3-(trifluoromethyl)benzyl)-N^2-(1H-pyrrolo[3,2-c]pyridin-3-yl)oxalamide], 0.2 to 1 µM.

Compound `O=C(NCc1ccc(-c2ccccc2C(F)(F)F)cc1)C(=O)Nc1c[nH]c2ccncc12` [Compound 120, N^1-(1H-pyrrolo[3,2-c]pyridin-3-yl)-N^2-((2′-(trifluoro-methyl)-[1,1′-biphenyl]-4-yl)methyl)oxalamide] showed an EC50 of 0.2 to 1 µM. Compound `O=C(Nc1c[nH]c2ccncc12)C(=O)NC1CCC2(CCCCC2)CC1` [Compound 121, N^1-(1H-pyrrolo[3,2-c]pyridin-3-yl)-N^2-(spiro[5.5]undecan-3-yl)oxalamide] gave an EC50 of 1 to 5 µM.

`O=C(NCCC1CCC(F)(F)CC1)C(=O)Nc1c[nH]c2ccncc12` [Compound 122, N^1-(2-(4,4-difluorocyclo-hexyl)ethyl)-N^2-(1H-pyrrolo[3,2-c]pyridin-3-yl)oxalamide] yielded an EC50 of 5 to 100 µM. The same measure, in the same setting: to `O=C(NCC12CC3CC(CC(C3)C1)C2)C(=O)Nc1c[nH]c2ccncc12` [Compound 124, N^1-(adamantan-1-ylmethyl)-N^2-(1H-pyrrolo[3,2-c]pyridin-3-yl)oxalamide] belongs 1 to 5 µM; to `O=C(Nc1ccc(C(F)(F)F)cc1)C(=O)Nc1c[nH]c2ncc(F)cc12` [Compound 125], 1 to 5 µM. As to `Cc1ccc(CNC(=O)C(=O)Nc2c[nH]c3ccc(Br)nc23)cc1C(F)(F)F` [Compound 128], the EC50 was in the range of 0.2 to 1 µM. Turning to `O=C(NCC1(c2cccc(Cl)c2)CC1)C(=O)Nc1c[nH]c2ccncc12` [Compound 129], the EC50 was 5 to 100 µM. `Cc1ccc(CNC(=O)C(=O)Nc2c[nH]c3ccc(-c4cnn(C)c4)nc23)cc1C(F)(F)F` [Compound 130] yielded an EC50 of 1 to 5 µM. `O=C(NCc1ccc(C(F)(F)F)c(Cl)c1)C(=O)Nc1c[nH]c2ncc(F)c(F)c12` [Compound 131] had an EC50 of 5 to 100 µM. In turn, `Cc1cc(F)c(Cl)cc1NC(=O)C(=O)Nc1c[nH]c2cccnc12` [Compound 136, N1-(5-chloro-4-fluoro-2-methylphenyl)-N2-(1H-pyrrolo[3,2-b]pyridin-3-yl)oxalamide] showed an EC50 of 5 to 100 µM. The same measure, in the same setting: to `CC(CNC(=O)C(=O)Nc1c[nH]c2cccnc12)Oc1ccc(C(F)(F)F)cc1` (stereo not drawn) [Compound 137, N1-(1H-pyrrolo[3,2-b]pyridin-3-yl)-N2-(2-(4-(trifluoromethyl)phenoxy)propyl)oxalamide] belongs 5 to 100 µM; to `Cc1c(CNC(=O)C(=O)Nc2c[nH]c3cccnc23)cccc1C(F)(F)F` [Compound 138, N1-(2-methyl-3-(trifluoromethyl)benzyl)-N2-(1H-pyrrolo[3,2-b]pyridin-3-yl)oxalamide], 0.2 to 1 µM.

Regarding `O=C(NCc1ccc(Cl)cc1C(F)(F)F)C(=O)Nc1c[nH]c2cccnc12` [Compound 140, N1-(4-chloro-2-(trifluoromethyl)benzyl)-N2-(1H-pyrrolo[3,2-b]pyridin-3-yl)oxalamide], the concentration giving a half-maximal response (EC50) lay within 1 to 5 µM.

Staying with this assay, now noted: 15 μM 2′3′cGAMP, 24 h, numeric bounds.
`O=C(Nc1cnc2c(c1)CCCC2)C(=O)Nc1c[nH]c2cccnc12` [Compound 108, N^1-(1H-pyrrolo[3,2-b]pyridin-3-yl)-N^2-(5,6,7,8-tetrahydro-quinolin-3-yl)oxalamide] came in with an EC50 above 100 µM. Still for that read-out and setting: in the case of `O=C(NCC1CCc2ccccc2O1)C(=O)Nc1c[nH]c2cccnc12` (stereo not drawn) [Compound 132, N1-(chroman-2-ylmethyl)-N2-(1H-pyrrolo[3,2-b]pyridin-3-yl)oxalamide] it was above 30 µM; in that of `O=C(NCCOc1ccc(C(F)(F)F)cc1)C(=O)Nc1c[nH]c2cccnc12` [Compound 133, N1-(1H-pyrrolo[3,2-b]pyridin-3-yl)-N2-(2-(4-(trifluoromethyl)phenoxy)ethyl)oxalamide], above 30 µM; in that of `O=C(Nc1c[nH]c2cccnc12)C(=O)NC(c1ccc(F)cc1)C1CC1` (stereo not drawn) [Compound 135, N1-(cyclopropyl(4-fluorophenyl)methyl)-N2-(1H-pyrrolo[3,2-b]pyridin-3-yl)oxalamide], above 30 µM. On to `O=C(NCCc1ncc(C(F)(F)F)cc1Cl)C(=O)Nc1c[nH]c2cccnc12` [Compound 139, N1-(2-(3-chloro-5-(trifluoromethyl)pyridin-2-yl)ethyl)-N2-(1H-pyrrolo[3,2-b]pyridin-3-yl)oxalamide], for which the EC50 was above 30 µM.

For orientation: EC50 means the concentration needed to bring the measured effect to its halfway point.
